# Results reported in the supplement of paper PMC10307832.
# How the values were obtained:
# Test in all cases: relative viability (nuclei count vs DMSO), 5 days (fraction); higher = more cells survive
# [1] = compound: COc1cc(-c2nn([C@H]3CC[C@H](N4CCN(C(C)=O)CC4)CC3)c3ncnc(N)c23)ccc1NC(=O)c1cc2ccccc2n1C + CS(=O)(=O)N1CCN(Cc2cc3nc(-c4cccc5[nH]ncc45)nc(N4CCOCC4)c3s2)CC1 [Pictilisib] (partner 1 µM)
# How it was run: (§1)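 Values are medians from duplicate plates. Each reflects relative viability, defined as the nuclei count of treated wells over that of vehicle wells. Lung cancer cell lines in 1536-well plates were pin-tool dosed one day after seeding with one drug alone or with a fixed anchor-drug dose plus five library-drug doses (not always all listed) in √10 steps, then fixed, stained and imaged at 4× after 5 days.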
# [2] = compound: CO[C@@H]1[C@H](N(C)C(=O)c2ccccc2)C[C@H]2O[C@]1(C)n1c3ccccc3c3c4c(c5c6ccccc6n2c5c31)C(=O)NC4 [Midostaurin] + COc1cc2c(Oc3ccc(NC(=O)C4(C(=O)Nc5ccc(F)cc5)CC4)cc3F)ccnc2cc1OCCCN1CCOCC1 [Foretinib] (partner 0.25 µM)
# How it was run: as §1
# [3] = compound: CO[C@@H]1[C@H](N(C)C(=O)c2ccccc2)C[C@H]2O[C@]1(C)n1c3ccccc3c3c4c(c5c6ccccc6n2c5c31)C(=O)NC4 [Midostaurin] + C[C@@H](Oc1cc(-c2cnn(C3CCNCC3)c2)cnc1N)c1c(Cl)ccc(F)c1Cl [Crizotinib] (partner 1 µM)
# How it was run: as §1
# [4] = compound: COc1cc(-c2nn([C@H]3CC[C@H](N4CCN(C(C)=O)CC4)CC3)c3ncnc(N)c23)ccc1NC(=O)c1cc2ccccc2n1C + CC(=O)Nc1cccc(-n2c(=O)n(C3CC3)c(=O)c3c(Nc4ccc(I)cc4F)n(C)c(=O)c(C)c32)c1 [Trametinib] (partner 0.02 µM)
# How it was run: as §1
# [5] = compound: COc1cc(-c2nn([C@H]3CC[C@H](N4CCN(C(C)=O)CC4)CC3)c3ncnc(N)c23)ccc1NC(=O)c1cc2ccccc2n1C + Nc1nc2[nH]cc(CCc3ccc(C(=O)N[C@@H](CCC(=O)O)C(=O)O)cc3)c2c(=O)[nH]1 [Pemetrexed] (partner 0.2 µM)
# How it was run: as §1
Cell Line,relative viability ([1]; first compound 0.0128 µM),relative viability ([1]; first compound 0.04048 µM),relative viability ([1]; first compound 0.128 µM),relative viability ([1]; first compound 1.28 µM),relative viability ([2]; first compound 0.01 µM),relative viability ([2]; first compound 0.03162 µM),relative viability ([2]; first compound 0.1 µM),relative viability ([2]; first compound 0.3162 µM),relative viability ([3]; first compound 0.01 µM),relative viability ([3]; first compound 0.03162 µM),relative viability ([3]; first compound 0.1 µM),relative viability ([3]; first compound 0.3162 µM),relative viability ([4]; first compound 0.0128 µM),relative viability ([4]; first compound 0.04048 µM),relative viability ([4]; first compound 0.128 µM),relative viability ([4]; first compound 1.28 µM),relative viability ([5]; first compound 0.0128 µM),relative viability ([5]; first compound 0.04048 µM),relative viability ([5]; first compound 0.128 µM),relative viability ([5]; first compound 1.28 µM)
NCI-H596,0.412,0.451,0.356,0.44,0.816,0.969,0.723,0.896,0.957,1.12,1.11,1.1,0.915,0.8,0.88,0.554,0.494,0.536,0.517,0.431
H3255,0.523,0.408,0.49,0.278,0.894,0.793,0.833,0.959,0.829,0.718,0.937,0.892,0.611,0.44,0.613,0.499,0.628,0.567,0.578,0.489
NCI-H647,0.41,0.456,0.257,0.28,1.14,1.2,1.2,1.14,1.06,0.802,0.832,0.416,0.543,0.265,0.333,0.169,0.19,0.154,0.172,0.164
NCI-H2023,0.277,0.188,0.212,0.22,0.856,0.984,0.686,0.631,0.642,0.613,0.584,0.499,0.402,0.445,0.585,0.454,0.258,0.211,0.229,0.242
NCI-H23,0.36,0.298,0.403,0.457,0.685,1.23,0.648,0.531,0.479,0.512,0.355,0.41,0.405,0.25,0.281,0.226,0.66,0.459,0.688,0.618
NCI-H1944,0.362,0.301,0.327,0.285,0.893,0.899,0.711,0.853,1.07,1.08,1,1.1,0.455,0.274,0.393,0.295,0.65,0.589,0.571,0.6
NCI-H520,0.293,0.337,0.247,0.216,0.68,0.715,0.661,0.688,0.69,0.668,0.691,0.525,0.606,0.354,0.55,0.361,0.637,0.732,0.603,0.409
NCI-H460,0.164,0.314,0.345,0.368,1.02,0.932,1,0.95,0.903,0.75,0.898,0.787,0.111,0.0655,0.148,0.058,0.0604,0.0561,0.0601,0.0597
EKVX,0.458,0.475,0.401,0.245,0.824,0.76,0.702,0.78,1.07,0.988,0.868,0.929,0.406,0.236,0.305,0.236,0.43,0.4,0.373,0.374
NCI-H358,0.395,0.331,0.277,0.249,0.821,0.784,0.706,0.662,0.528,0.596,0.563,0.292,0.153,0.125,0.131,0.115,0.188,0.187,0.173,0.166
EPLC-272H,0.369,0.258,0.29,0.311,0.822,–,0.653,0.606,0.875,0.998,1.07,0.926,0.331,0.205,0.278,0.24,0.406,0.338,0.287,0.253
NCI-H2126,0.567,0.434,0.48,0.438,1.19,1.14,1.04,1.15,1.02,0.951,0.965,1.04,0.55,0.497,0.508,0.448,0.621,0.656,0.669,0.618
LXF-289,0.827,0.586,0.775,0.509,0.967,0.941,0.897,0.988,0.815,0.78,0.764,0.831,0.78,0.468,0.692,0.811,1.01,0.881,0.901,1.16
